Experimental data reported in patent publication US20250296953A1, “3,4-THIAZOLO-STEROIDS AND METHODS OF MAKING AND USING THE SAME” (Arkansas State University - Jonesboro, priority 2018, published 2025).
Like-named read-outs stand apart in the source and are kept apart here.

Assays:
gliosarcoma (SF-539) = experiment: NCI 60 five dose screen
SK-MEL-5 = experiment: Melanoma cytotoxicity assay (resazurin); assay type: cell-based; details: SK-MEL-5 melanoma cells, 24 hours with compound, resazurin; concentration not given
Outline: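 ~4000 cells/well, 24 h attach, 37° C/5% CO2; cpd triplicate, 24 h; resazurin 6 h; fluor 544/590 nm. % viability vs DMSO after media-blank subtraction; IC50 from dilution series, sigmoidal fit.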

SK-MEL-25 = experiment: Melanoma cytotoxicity assay (resazurin); assay type: cell-based; details: SK-MEL-25 melanoma cells, 24 hours with compound, resazurin; concentration not given
Outline: (§1)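 Readout: resazurin fluorescence (ex 544, em 590 nm) after 6 h dye incubation, following 24 h compound exposure of ~4000 cells/well. Viability = background-subtracted signal over DMSO wells; IC50 by sigmoidal curve fitting.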

SK-MEL-28 = experiment: Melanoma cytotoxicity assay (resazurin); assay type: cell-based; details: SK-MEL-28 melanoma cells, 24 hours with compound, resazurin; concentration not given
Outline: as §1

SF-295 = experiment: NCI 60 one dose screen; assay type: cell-based, human; details: one dose; CNS Cancer; SF-295
[1] = test system: 60 different human tumor cell lines; experiment: cells

C[C@]12CCc3sc(Nc4ccc(OC(F)(F)F)cc4)nc3C1=CC[C@@H]1[C@@H]2CC[C@]2(C)C(=O)CC[C@@H]12 [IIa.19, (1S,2R,13R,14S,18S)-2,18-dimethyl-7-[4-(trifluoromethoxy)anilino]-6-thia-8-azapentacyclo[11.7.0.02,10.05,9.014,18]icosa-5(9),7,10-trien-17-one] gave a GI50 (gliosarcoma (SF-539); Homo sapiens, SF-539) of 1.05 µM, a CC50 (gliosarcoma (SF-539); Homo sapiens, SF-539, read-out: LC50) of 7.07 µM and a TGI (gliosarcoma (SF-539); SF-539 (CNS Cancer), five dose) of 2.72E−6. For the same compound, the “SK-MEL-5 (% inhibition)” value (SK-MEL-5) was 43%, the “SK-MEL-25 (% inhibition)” value (SK-MEL-25) was 24% and the “SK-MEL-28 (% inhibition)” value (SK-MEL-28) was 97%. The “Growth Percent” value (SF-295) was −2.71%, the GI50 ([1]; A549) was 3.35 µM and the CC50 ([1]; A549, read-out: LC50) was 73.5 µM. For the same compound, the GI50 ([1]; CCRF-CEM) was 1.42 µM, the CC50 ([1]; CCRF-CEM, read-out: LC50) was over 100 µM and the GI50 ([1]; COLO 205) was 2.61 µM. The CC50 ([1]; COLO 205, read-out: LC50) was 58.7 µM, the GI50 ([1]; EKVX) was 2.63 µM and the CC50 ([1]; EKVX, read-out: LC50) was 95.7 µM. It also gave a GI50 ([1]; HCC 2998) of 5.32 µM, a CC50 ([1]; HCC 2998, read-out: LC50) of 51.2 µM and a GI50 ([1]; HCT-15) of 1.69 µM. It also gave a CC50 ([1]; HCT-15, read-out: LC50) of 9.97 µM, a GI50 ([1]; HCT-116) of 1.28 µM and a GI50 ([1]; HL-60) of 1.93 µM. The CC50 ([1]; HL-60, read-out: LC50) was over 100 µM, the GI50 ([1]; HOP-62) was 1.92 µM and the CC50 ([1]; HOP-62, read-out: LC50) was 9.14 µM. It also gave a GI50 ([1]; HOP-92) of 1.43 µM, a CC50 ([1]; HOP-92, read-out: LC50) of 8.26 µM and a GI50 ([1]; HT-29) of 2.39 µM. For the same compound, the CC50 ([1]; HT-29, read-out: LC50) was over 100 µM, the GI50 ([1]; K562) was 1.87 µM and the CC50 ([1]; K562, read-out: LC50) was over 100 µM. The GI50 ([1]; KM12) was 3.56 µM, the CC50 ([1]; KM12, read-out: LC50) was over 100 µM and the GI50 ([1]; LOX IMVI) was 1.74 µM. For the same compound, the CC50 ([1]; LOX IMVI, read-out: LC50) was 5.82 µM, the GI50 ([1]; MOLT-4) was 1.53 µM and the CC50 ([1]; MOLT-4, read-out: LC50) was over 100 µM. The GI50 ([1]; Malme-3M) was 3.45 µM, the CC50 ([1]; Malme-3M, read-out: LC50) was 84.5 µM and the GI50 ([1]; NCI-H23) was 3.73 µM. For the same compound, the CC50 ([1]; NCI-H23, read-out: LC50) was 94.6 µM, the GI50 ([1]; NCI-H226) was 6.37 µM and the CC50 ([1]; NCI-H226, read-out: LC50) was over 100 µM. It also gave a GI50 ([1]; NCI-H322M) of 6.05 µM, a CC50 ([1]; NCI-H322M, read-out: LC50) of over 100 µM and a GI50 ([1]; NCI-H460) of 3.25 µM. The CC50 ([1]; NCI-H460, read-out: LC50) was 41.9 µM, the GI50 ([1]; NCI-H522) was 2.14 µM and the CC50 ([1]; NCI-H522, read-out: LC50) was 9.7 µM. The GI50 ([1]; SF-268) was 3.01 µM, the CC50 ([1]; SF-268, read-out: LC50) was 57.3 µM and the GI50 ([1]; SNB-19) was 2.12 µM. The CC50 ([1]; SNB-19, read-out: LC50) was 46 µM, the GI50 ([1]; SNB-75) was 1.88 µM and the CC50 ([1]; SNB-75, read-out: LC50) was 29.6 µM. It also gave a GI50 ([1]; SW-620) of 2.21 µM, a CC50 ([1]; SW-620, read-out: LC50) of 18.5 µM and a GI50 ([1]; U-251) of 1.09 µM. It also gave a CC50 ([1]; U-251, read-out: LC50) of 9.78 µM.
